Test results taken from BindingDB's records for doi:10.1016/s0960-894x(01)00002-6 (Kyushu University, 2001).
pIC50: −log10 of the molar value.

molecular target: DNA polymerase I (Escherichia coli) (UniProt P00582); assay: Compound was evaluated for its inhibitory activity against Klenow enzyme
Sequence (P00582 whole entry, looked up): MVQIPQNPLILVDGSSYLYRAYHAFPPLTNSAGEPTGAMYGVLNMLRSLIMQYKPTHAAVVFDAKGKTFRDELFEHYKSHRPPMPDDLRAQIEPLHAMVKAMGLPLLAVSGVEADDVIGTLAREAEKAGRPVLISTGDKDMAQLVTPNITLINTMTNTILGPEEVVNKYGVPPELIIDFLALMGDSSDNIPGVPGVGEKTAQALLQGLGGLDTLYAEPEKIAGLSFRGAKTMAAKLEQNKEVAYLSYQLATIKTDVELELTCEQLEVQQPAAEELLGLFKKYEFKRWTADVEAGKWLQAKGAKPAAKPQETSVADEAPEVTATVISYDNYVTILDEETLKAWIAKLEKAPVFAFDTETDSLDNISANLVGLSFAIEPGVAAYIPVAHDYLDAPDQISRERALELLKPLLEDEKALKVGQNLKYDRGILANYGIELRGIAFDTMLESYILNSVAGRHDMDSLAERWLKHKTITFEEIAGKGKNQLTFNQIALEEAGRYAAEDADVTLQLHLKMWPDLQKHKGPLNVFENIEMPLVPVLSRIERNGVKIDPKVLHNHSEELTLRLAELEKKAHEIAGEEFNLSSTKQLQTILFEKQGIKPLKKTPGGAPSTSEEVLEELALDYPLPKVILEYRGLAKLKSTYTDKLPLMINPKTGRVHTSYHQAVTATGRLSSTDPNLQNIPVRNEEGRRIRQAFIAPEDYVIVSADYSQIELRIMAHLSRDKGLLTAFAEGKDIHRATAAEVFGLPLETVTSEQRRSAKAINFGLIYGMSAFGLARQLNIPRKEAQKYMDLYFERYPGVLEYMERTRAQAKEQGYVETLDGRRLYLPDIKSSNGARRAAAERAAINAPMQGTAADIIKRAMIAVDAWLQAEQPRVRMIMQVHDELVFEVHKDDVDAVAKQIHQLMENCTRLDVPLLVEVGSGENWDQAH

Row | pIC50 | SMILES
1 | 4.00 | O=C(Cc1cn(CCn2ccc3cc(Cl)ccc32)c2ccccc12)NCCCCCCCCCCCCOP(=O)(O)OC1CCCCC1 [Phosphoric acid 12-(2-{1-[2-(5-chloro-indol-1-yl)-ethyl]-1H-indol-3-yl}-acetylamino)-dodecyl ester cyclohexyl ester; compound with triethyl-amine]
2 | 4.15 | O=C(Cc1cn(CCn2ccc3cc(Cl)ccc32)c2ccccc12)NCCCCCCCCCCCCOP(=O)(O)Oc1cccc(Cl)c1 [Phosphoric acid 12-(2-{1-[2-(5-chloro-indol-1-yl)-ethyl]-1H-indol-3-yl}-acetylamino)-dodecyl ester 3-chloro-phenyl ester; compound with triethyl-amine]
3 | 4.21 | O=C(Cc1cn(CCn2ccc3cc(Cl)ccc32)c2ccccc12)NCCCCCCCCCCCCOP(=O)(O)Oc1ccccc1 [Phosphoric acid 12-(2-{1-[2-(5-chloro-indol-1-yl)-ethyl]-1H-indol-3-yl}-acetylamino)-dodecyl ester phenyl ester; compound with triethyl-amine]
